# In patent publication US20250188092A1, “RIFAMYCIN ANALOGS” (THE REGENTS OF THE UNIVERSITY OF MICHIGAN, priority 2021, published 2025):
# pIC50: −log10 of the molar value. Several values for one entry are separate records, joined by “and”; a condition that tells them apart may be missing. Identical values can stand only once. Like-named read-outs stand apart in the source and are kept apart here.
# Legend:
# E. coli WT RNAP = target: T1, E. coli WT RNAP (Escherichia coli, UniProt P0A8V2); assay: biochemical
# T1 construct: made in house
# T1 sequence (P0A8V2 whole entry): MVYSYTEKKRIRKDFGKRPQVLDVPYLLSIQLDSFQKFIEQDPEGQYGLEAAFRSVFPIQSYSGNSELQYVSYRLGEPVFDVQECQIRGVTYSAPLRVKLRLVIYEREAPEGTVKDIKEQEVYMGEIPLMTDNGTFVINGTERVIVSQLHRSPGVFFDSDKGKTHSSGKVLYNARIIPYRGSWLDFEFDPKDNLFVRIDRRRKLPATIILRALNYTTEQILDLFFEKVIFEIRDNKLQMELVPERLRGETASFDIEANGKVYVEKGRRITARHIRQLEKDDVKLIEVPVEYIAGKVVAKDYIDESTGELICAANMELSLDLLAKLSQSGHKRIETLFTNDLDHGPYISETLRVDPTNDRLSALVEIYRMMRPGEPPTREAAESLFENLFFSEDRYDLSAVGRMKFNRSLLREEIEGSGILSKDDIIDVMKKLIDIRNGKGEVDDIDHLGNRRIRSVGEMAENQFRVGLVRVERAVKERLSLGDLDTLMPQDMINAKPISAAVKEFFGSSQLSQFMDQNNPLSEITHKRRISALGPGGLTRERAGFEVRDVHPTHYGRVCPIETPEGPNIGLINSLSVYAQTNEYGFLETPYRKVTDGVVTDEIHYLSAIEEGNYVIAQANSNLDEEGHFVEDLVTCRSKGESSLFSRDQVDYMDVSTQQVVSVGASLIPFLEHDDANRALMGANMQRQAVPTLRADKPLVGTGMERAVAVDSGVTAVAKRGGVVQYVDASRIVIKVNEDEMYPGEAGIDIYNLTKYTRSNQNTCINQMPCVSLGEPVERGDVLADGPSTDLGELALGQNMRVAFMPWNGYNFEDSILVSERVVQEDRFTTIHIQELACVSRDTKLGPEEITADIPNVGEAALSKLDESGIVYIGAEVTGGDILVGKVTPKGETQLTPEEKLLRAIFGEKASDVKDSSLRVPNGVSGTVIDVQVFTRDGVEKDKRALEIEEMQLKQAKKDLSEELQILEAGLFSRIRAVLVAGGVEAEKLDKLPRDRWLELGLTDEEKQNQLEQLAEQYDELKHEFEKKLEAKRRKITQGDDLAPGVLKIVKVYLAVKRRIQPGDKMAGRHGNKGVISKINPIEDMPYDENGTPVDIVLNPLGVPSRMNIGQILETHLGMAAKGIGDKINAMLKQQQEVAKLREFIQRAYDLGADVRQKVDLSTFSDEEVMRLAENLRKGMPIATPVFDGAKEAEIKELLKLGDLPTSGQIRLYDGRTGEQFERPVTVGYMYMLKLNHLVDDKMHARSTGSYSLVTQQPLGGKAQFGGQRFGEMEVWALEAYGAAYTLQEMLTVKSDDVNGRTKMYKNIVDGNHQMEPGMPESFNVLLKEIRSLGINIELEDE
# T1 sequence (P0A8T7 whole entry partner): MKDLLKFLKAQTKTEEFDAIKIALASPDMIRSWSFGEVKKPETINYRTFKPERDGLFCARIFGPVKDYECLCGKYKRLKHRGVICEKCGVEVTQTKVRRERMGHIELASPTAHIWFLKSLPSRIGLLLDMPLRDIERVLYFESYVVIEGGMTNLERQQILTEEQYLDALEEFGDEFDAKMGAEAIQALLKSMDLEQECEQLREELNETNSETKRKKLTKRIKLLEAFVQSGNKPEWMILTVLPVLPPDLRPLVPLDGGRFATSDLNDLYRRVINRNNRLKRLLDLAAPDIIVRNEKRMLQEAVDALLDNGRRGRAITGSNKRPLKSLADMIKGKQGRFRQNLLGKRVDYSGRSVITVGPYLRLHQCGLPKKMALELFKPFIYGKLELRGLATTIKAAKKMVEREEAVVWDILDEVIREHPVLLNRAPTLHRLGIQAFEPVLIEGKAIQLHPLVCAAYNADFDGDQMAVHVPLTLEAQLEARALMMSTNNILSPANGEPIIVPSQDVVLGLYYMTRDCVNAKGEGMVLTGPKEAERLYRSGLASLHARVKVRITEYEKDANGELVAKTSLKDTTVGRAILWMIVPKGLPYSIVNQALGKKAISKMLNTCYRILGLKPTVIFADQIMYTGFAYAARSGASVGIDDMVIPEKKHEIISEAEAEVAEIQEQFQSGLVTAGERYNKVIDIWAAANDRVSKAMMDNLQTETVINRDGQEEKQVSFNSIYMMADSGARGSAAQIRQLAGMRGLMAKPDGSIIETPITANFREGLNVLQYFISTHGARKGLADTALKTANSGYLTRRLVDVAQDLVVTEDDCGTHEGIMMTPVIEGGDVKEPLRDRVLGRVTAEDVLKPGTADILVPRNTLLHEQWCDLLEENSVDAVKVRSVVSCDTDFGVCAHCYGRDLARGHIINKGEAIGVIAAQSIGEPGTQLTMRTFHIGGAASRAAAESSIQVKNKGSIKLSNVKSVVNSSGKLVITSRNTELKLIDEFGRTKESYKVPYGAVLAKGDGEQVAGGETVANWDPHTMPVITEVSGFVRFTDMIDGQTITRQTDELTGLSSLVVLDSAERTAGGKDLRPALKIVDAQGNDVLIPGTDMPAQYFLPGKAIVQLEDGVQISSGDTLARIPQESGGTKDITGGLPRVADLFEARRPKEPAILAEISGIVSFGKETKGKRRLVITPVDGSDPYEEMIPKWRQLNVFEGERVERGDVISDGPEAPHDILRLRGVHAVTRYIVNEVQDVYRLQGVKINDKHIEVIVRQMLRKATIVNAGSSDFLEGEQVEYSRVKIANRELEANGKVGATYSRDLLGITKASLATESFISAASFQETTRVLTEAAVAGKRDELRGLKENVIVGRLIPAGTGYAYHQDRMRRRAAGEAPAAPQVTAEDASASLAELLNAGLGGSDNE
# T1 sequence (P0A7Z4 whole entry partner): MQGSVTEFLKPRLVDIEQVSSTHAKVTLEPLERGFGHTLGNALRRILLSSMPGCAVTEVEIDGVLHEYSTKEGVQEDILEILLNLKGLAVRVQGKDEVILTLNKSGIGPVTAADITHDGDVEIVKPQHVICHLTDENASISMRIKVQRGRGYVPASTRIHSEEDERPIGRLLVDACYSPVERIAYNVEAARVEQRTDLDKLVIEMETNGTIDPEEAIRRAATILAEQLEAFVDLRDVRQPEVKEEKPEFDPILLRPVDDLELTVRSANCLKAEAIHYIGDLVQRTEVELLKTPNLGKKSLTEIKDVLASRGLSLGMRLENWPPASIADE
# T1 sequence (P0A800 whole entry partner): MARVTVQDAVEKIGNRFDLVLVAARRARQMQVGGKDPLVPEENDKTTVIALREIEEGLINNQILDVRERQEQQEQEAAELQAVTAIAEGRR
# T1 sequence (P00579 whole entry partner): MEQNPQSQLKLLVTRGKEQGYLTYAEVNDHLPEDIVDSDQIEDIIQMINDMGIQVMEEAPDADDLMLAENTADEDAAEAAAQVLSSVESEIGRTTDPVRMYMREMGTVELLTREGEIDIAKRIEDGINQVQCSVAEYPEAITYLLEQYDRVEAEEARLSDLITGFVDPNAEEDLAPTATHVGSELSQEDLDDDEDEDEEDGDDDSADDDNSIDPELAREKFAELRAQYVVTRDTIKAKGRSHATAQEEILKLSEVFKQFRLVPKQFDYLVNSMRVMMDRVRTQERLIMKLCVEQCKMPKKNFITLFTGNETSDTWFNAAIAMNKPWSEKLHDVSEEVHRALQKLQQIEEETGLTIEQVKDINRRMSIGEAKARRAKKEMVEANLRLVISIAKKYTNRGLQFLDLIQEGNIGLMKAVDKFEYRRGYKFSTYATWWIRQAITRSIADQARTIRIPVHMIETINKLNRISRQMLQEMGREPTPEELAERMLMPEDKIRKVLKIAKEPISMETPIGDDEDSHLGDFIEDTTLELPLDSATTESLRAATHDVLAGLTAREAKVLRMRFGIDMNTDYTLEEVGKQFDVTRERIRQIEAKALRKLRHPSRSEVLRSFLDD
# VERO cells (ATCC CRL-81) = assay: Vero cell toxicity; assay type: cell-based; details: Chlorocebus sabaeus, Vero; 72 hours exposure
# Method: Cytotoxicity for a mammalian cell line was determined by exposing VERO cells (ATCC CRL-81) to serial dilutions of test compounds for 72 hours, followed by addition of resazurin and measurement of fluorescence after 4 hours incubation (Choules, et al., Antimnicrob. Agents Chemother. 2019, 63, e02204-02218).
# MTB H37Rv ATCC 27294 = assay: MIC, microplate Alamar Blue assay (MABA); assay type: cell-based, Mycobacterium tuberculosis
# M. tuberculosis H37Rv = assay: Minimum bactericidal concentration (MBC, CFU Assay); assay type: cell-based, Mycobacterium tuberculosis
# [1] = assay type: in vivo, BALB/c mice
# Method: For i.v. dosing, the vehicle DMSO/PEG-400/PBS (1×) (5/60/35) was used. Female ˜20 g BALB/c mice (7-9 weeks old) were used in the study. Three mice were used for each set of conditions. […] Plasma concentrations were determined over 24 hrs in the single day study and on days 1 and 5 in the 5 day study. Lung exposure was also determined in the 1 day study at 24 hrs post dosing and on day 5 of the 5 day study at 4 hrs and 24 hrs post dosing. Compound concentrations were determined by reverse phase HPLC-MS against a standard curve.
# M. tuberculosis Erdman = assay: Mouse acute efficacy study (lung CFU); assay type: in vivo, BALB/c mice
# [2] = assay type: in vivo, BALB/c mice; details: Day 1, Five Day Study, 4 hr
# [3] = Mouse acute efficacy study: mice weight and adverse effects
# [4] = 100 mg/kg QD, PEG-water vehicle
structure (smiles),measurement,setting,value
"CO[C@H]1/C=C/O[C@@]2(C)Oc3c(C)c(O)c4c(=O)c(c5oc6cc(N7CCN(CC(C)C)CC7)cc(OCc7ccc(CN8CCOCC8)cc7)c6nc-5c4c3C2=O)NC(=O)/C(C)=C\C=C\[C@H](C)[C@H](O)[C@@H](C)[C@@H](O)[C@@H](C)[C@H](OC(C)=O)[C@@H]1C [Compound 17e, (7S,9E,11S,12R,13S,14R,15R,16R,17S,18S,19E,21Z)-2,15,17-Trihydroxy-11-methoxy-3,7,12,14,16,18,22-heptamethyl-30-[4-(2-methylpropyl)piperazin-1-yl]-32-({4-[(morpholin-4-yl)methyl]phenyl}methoxy)-6,23,37-trioxo-8,27,38-trioxa-24,34-diazahexacyclo[23.11.1.1^4,7.0^5,36.0^26,35.0^28,33]octatriaconta-1(36)2,4,9,19,21,25,28,30,32,34-undecaen-13-yl acetate]",pIC50,E. coli WT RNAP,7.85
same,pIC50,VERO cells (ATCC CRL-81),< 5.00
same,MIC90 MABA Rel to RMP,MTB H37Rv ATCC 27294,0.12
same,MIC,"MTB H37Rv ATCC 27294; Mycobacterium tuberculosis, MTB H37Rv ATCC 27294, microplate Alamar Blue assay, lowest concentration giving ≥90% reduction in fluorescence, read-out: MIC90 MABA",5 nM
same,MBC better than that of rifampin,M. tuberculosis H37Rv,~5 fold
same,"Plasma concentration, Avg","[1]; Day 1, Five Day Study, 4 hr",360 ng/mL and 319 nM
same,"Lung Homogenate concentration, Avg","[1]; Day 1, One Day Study, 24 hr",164 ng/mL and 145 nM
same,"Plasma concentration, Avg","[1]; Day 1, One Day Study, 24 hr",327 ng/mL and 289 nM
same,"Lung Homogenate concentration, Avg","[1]; Day 5, Five Day Study, 4 hr",323 ng/mL and 286 nM
same,"Plasma concentration, Avg","[1]; Day 5, Five Day Study, 4 hr",688 ng/mL and 608 nM
same,"Lung Homogenate concentration, Avg","[1]; Day 5, Five Day Study, 24 hr",41 ng/mL and 36 nM
same,"Plasma concentration, Avg","[1]; Day 5, Five Day Study, 24 hr",121 ng/mL and 107 nM
same,effectiveness versus rifampin control at 15 mg/kg in the same vehicle,M. tuberculosis Erdman; 100 mg/kg PO,at least equal in effectiveness
same,CFU/Mouse,"M. tuberculosis Erdman; 100 mg/kg QD, PEG-water vehicle, day 21","4,029"
same,DPX2 Viability @ 6.25 μM,"DPX2 cells; 6.25 μM, 24 h",113%
same,DPX2 Viability @ 25 μM,DPX2 cells; human,95%
same,"Lung Homogenate concentration, Avg",[2],248 ng/mL and 219 nM
same,Mice Weight (g) Day 0,[3]; [4],20.4 g
same,Mice Weight (g) Day 31,[3]; [4],21.0 g
same,adverse effects noted in the mice,[3]; 3-week treatment period,no adverse effects
